Laboratory results published in patent US8158820B2, “Compounds” (AstraZeneca AB, priority 2003, dated 2012).

Each molecule was assayed against T1, CRTh2 (Homo sapiens, UniProt Q9Y5Y4) (assay: Ligand Binding Assay ([3H]PGD2, SPA beads, HEK cell membranes)). Conditions: [3H]PGD2 binding to membranes of HEK cells expressing rhCRTh2/Gα16.
T1 construct: expressed in transfected cells; host or cells: HEK cells (stably transfected, geneticin selection; membranes prepared)
T1 sequence (Q9Y5Y4 1-395): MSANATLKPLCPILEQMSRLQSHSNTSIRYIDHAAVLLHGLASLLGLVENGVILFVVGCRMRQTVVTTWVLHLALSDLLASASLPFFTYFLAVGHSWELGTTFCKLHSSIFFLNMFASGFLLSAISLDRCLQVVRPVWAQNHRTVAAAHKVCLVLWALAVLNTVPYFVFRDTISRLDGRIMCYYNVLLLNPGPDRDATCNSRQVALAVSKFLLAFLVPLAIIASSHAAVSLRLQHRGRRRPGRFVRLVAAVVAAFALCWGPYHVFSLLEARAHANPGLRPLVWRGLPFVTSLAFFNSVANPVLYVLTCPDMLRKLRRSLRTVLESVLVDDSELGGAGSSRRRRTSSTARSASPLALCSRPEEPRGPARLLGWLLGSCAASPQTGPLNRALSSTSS
Protocol: [^3H]PGD2 was purchased from Perkin Elmer Life Sciences with a specific activity of 100-210 Ci/mmol. All other chemicals were of analytical grade.
HEK cells expressing rhCRTh2/Gα16 were routinely maintained in DMEM containing 10% Foetal Bovine Serum (HyClone), 1 mg/ml geneticin, 2 mM L-glutamine and 1% non-essential amino acids. For the preparation of membranes, the adherent transfected HEKcells were grown to confluence in two layer tissue culture factories (Fisher, catalogue number TKT-170-070E). Maximal levels of receptor expression were induced by addition of […] sodium butyrate for the last 18 hours of culture. The adherent cells were washed once with phosphate buffered saline (PBS, 50 ml per cell factory) and detached by the addition of 50 ml per cell factory of ice-cold membrane homogenisation buffer [20 mM HEPES (pH 7.4), 0.1 mM dithiothreitol, 1 mM EDTA, 0.1 mM phenyl methyl sulphonyl fluoride and 100 μg/ml bacitracin]. […] The final pellet was re-suspended in 4 ml of membrane homogenisation buffer per cell factory used and the protein content determined. […]
All assays were performed in Corning clear bottomed, white 96-well NBS plates (Fisher). […] (The optimum coating concentrations were determined for each batch of membranes) The beads were pelleted by centrifugation (800×g for 7 minutes at 4° C.), washed once with assay buffer (50 mM HEPES pH 7.4 containing 5 mM magnesium chloride) and finally re-suspended in assay buffer at a bead concentration of 10 mg/ml.
Each assay contained 20 μl of 6.25 nM [^3H]PGD2, 20 μl membrane saturated SPA beads both in assay buffer and 10 μl of compound solution or 13,14-dihydro-15-keto prostaglandin D2 (DK-PGD2, for determination of non-specific binding, Cayman chemical company). […] The assay plate was incubated at room temperature for 2 hours and counted on a Wallac Microbeta liquid scintillation counter (1 minute per well).

| IC50 [nM] | Compound |
| --- | --- |
| 39.8 | CS(=O)(=O)c1ccc(-c2cc(Cl)ccc2OCC(=O)O)cc1 [Example 9, {[5-Chloro-4′-(methylsulfonyl)biphenyl-2-yl]oxy}acetic acid] |
| 10 | CN(c1ncc(-c2cc(Cl)ccc2OCC(=O)O)cn1)S(C)(=O)=O [Example 25, (4-Chloro-2-{2-[methyl(methylsulfonyl)amino]pyrimidin-5-yl}phenoxy)acetic acid] |
| 6.31 | CNS(=O)(=O)c1ccc(-c2cc(C(F)(F)F)ccc2OCC(=O)O)cc1 [Example 133, [[4′-[(Methylamino)sulfonyl]-5-(trifluoromethyl)[1,1′-biphenyl]-2-yl]oxy]-acetic acid] |
